Structures can show the parent of a compound that is named as a salt.
biological target: SARS-CoV-2 Mac1 (Severe acute respiratory syndrome coronavirus 2, UniProt P0DTD1); experiment: biochemical; conditions: 100 µM; inhibitor

Structure (SMILES)	%inhibition [%]
CC(=O)[C@@]1(O)CC[C@H]2[C@@H]3C[C@H](C)C4=CC(=O)C=C[C@]4(C)[C@@]3(F)[C@@H](O)C[C@@]21C [Fluorometholone]	0
COc1cc(Nc2ncc(F)c(Nc3ccc4c(n3)N(COP(=O)(O)O)C(=O)C(C)(C)O4)n2)cc(OC)c1OC [Fostamatinib (R788)]	0
Nc1ccn([C@@H]2O[C@H](CO)[C@@H](O)C2(F)F)c(=O)n1 [Gemcitabine HCl]	0
Nc1ccn([C@@H]2O[C@H](CO)[C@@H](O)C2(F)F)c(=O)n1 [Gemcitabine]	32.55
CN1[C@@H]2CCC[C@H]1C[C@@H](NC(=O)c1nn(C)c3ccccc13)C2 [Granisetron HCl]	0
CN1[C@@H]2CCC[C@H]1C[C@@H](NC(=O)c1nn(C)c3ccccc13)C2 [Granisetron]	0.5264

same assay, conditions: read-out: %inhibition

Structure (SMILES)	inhibition at 100 µM [%]
OC(Cn1cncn1)(Cn1cncn1)c1ccc(F)cc1F [Fluconazole]	16.6
Nc1nc(=O)[nH]cc1F [Flucytosine]	0
Nc1nc(F)nc2c1ncn2[C@@H]1O[C@H](CO)[C@@H](O)[C@@H]1O [Fludarabine]	12.7
CC(=O)OCC(=O)[C@@]1(O)CC[C@H]2[C@@H]3CCC4=CC(=O)CC[C@]4(C)[C@@]3(F)[C@@H](O)C[C@@]21C [Fludrocortisone acetate]	0
O=C(O)c1ccccc1Nc1cccc(C(F)(F)F)c1 [Flufenamic acid]	3.41
CCOC(=O)c1ncn2c1CN(C)C(=O)c1cc(F)ccc1-2 [Flumazenil]	5.44
CC1CCc2cc(F)cc3c(=O)c(C(=O)O)cn1c23 (centres unmarked) [Flumequine]	0
C[C@@H]1C[C@H]2[C@@H]3C[C@H](F)C4=CC(=O)C=C[C@]4(C)[C@@]3(F)[C@@H](O)C[C@]2(C)[C@@]1(O)C(=O)CO [Flumethasone]	28.1
Cc1c(Nc2ncccc2C(=O)O)cccc1C(F)(F)F [Flunixin Meglumin]	0
CC1(C)O[C@@H]2C[C@H]3[C@@H]4C[C@H](F)C5=CC(=O)C=C[C@]5(C)[C@@]4(F)[C@@H](O)C[C@]3(C)[C@]2(C(=O)CO)O1 [Fluocinolone Acetonide]	0
CC(=O)OCC(=O)[C@@]12OC(C)(C)O[C@@H]1C[C@H]1[C@@H]3C[C@H](F)C4=CC(=O)C=C[C@]4(C)[C@@]3(F)[C@@H](O)C[C@@]12C [Fluocinonide]	24.1
O=C1OC2(c3ccc(O)cc3Oc3cc(O)ccc32)c2ccccc21 [Fluorescein]	24.9
CC(=O)O[C@]1(C(C)=O)CC[C@H]2[C@@H]3C[C@H](C)C4=CC(=O)C=C[C@]4(C)[C@@]3(F)[C@@H](O)C[C@@]21C [Fluorometholone Acetate]	22.8
O=c1[nH]cc(F)c(=O)[nH]1 [Fluorouracil (5-Fluoracil, 5-FU)]	0
OCCN1CCN(CC/C=C2/c3ccccc3Sc3ccc(C(F)(F)F)cc32)CC1 [Flupenthixol dihydrochloride]	12.3
CCOC(=O)Nc1ccc(NCc2ccc(F)cc2)nc1N [Flupirtine maleate]	4.99
CC(C(=O)O)c1ccc(-c2ccccc2)c(F)c1 (centres unmarked) [Flurbiprofen]	2.76
CC(C)C(=O)Nc1ccc([N+](=O)[O-])c(C(F)(F)F)c1 [Flutamide]	0
CCC(=O)O[C@]1(C(=O)SCF)[C@H](C)C[C@H]2[C@@H]3C[C@H](F)C4=CC(=O)C=C[C@]4(C)[C@@]3(F)[C@@H](O)C[C@@]21C [Fluticasone propionate]	9.66
COCCCC/C(=N\OCCN)c1ccc(C(F)(F)F)cc1 [Fluvoxamine maleate]	0
Nc1nc(=O)c2nc(CNc3ccc(C(=O)N[C@@H](CCC(=O)O)C(=O)O)cc3)cnc2[nH]1 [Folic acid]	11.4
Cc1cn[nH]c1 [Fomepizole]	0

Structure (SMILES)	inhibition at 100 µM [%]
CO[C@H]1O[C@H](COS(=O)(=O)O)[C@@H](O[C@@H]2O[C@@H](C(=O)O)[C@@H](O[C@H]3O[C@H](COS(=O)(=O)O)[C@@H](O[C@@H]4O[C@H](C(=O)O)[C@@H](O[C@H]5O[C@H](COS(=O)(=O)O)[C@@H](O)[C@H](O)[C@H]5NS(=O)(=O)O)[C@H](O)[C@H]4O)[C@H](OS(=O)(=O)O)[C@H]3NS(=O)(=O)O)[C@H](O)[C@H]2OS(=O)(=O)O)[C@H](O)[C@H]1NS(=O)(=O)O [Fondaparinux Sodium]	0
COc1cc2c(Oc3ccc(NC(=O)C4(C(=O)Nc5ccc(F)cc5)CC4)cc3F)ccnc2cc1OCCCN1CCOCC1 [Foretinib (GSK1363089)]	0
C[C@]12CCC(=O)C(O)=C1CC[C@@H]1[C@@H]2CC[C@]2(C)C(=O)CC[C@@H]12 [Formestane]	0
C[C@@H](O[C@H]1OCCN(Cc2nn(P(=O)(O)O)c(=O)[nH]2)[C@H]1c1ccc(F)cc1)c1cc(C(F)(F)F)cc(C(F)(F)F)c1 [Fosaprepitant dimeglumine salt]	3
O=C(O)P(=O)(O)O [Foscarnet Sodium]	2.46
C[C@@H]1O[C@@H]1P(=O)(O)O [Fosfomycin Disodium]	0
O=C(O)c1ccccc1OP(=O)(O)O [Fosfosal]	4.81
CCC(=O)O[C@@H](O[P@](=O)(CCCCc1ccccc1)CC(=O)N1C[C@H](C2CCCCC2)C[C@H]1C(=O)O)C(C)C [Fosinopril Sodium]	0
N[C@@H](CSCCCO)C(=O)O [Fudosteine]	0
C[C@]12CC[C@@H]3c4ccc(O)cc4C[C@@H](CCCCCCCCC[S+]([O-])CCCC(F)(F)C(F)(F)F)[C@H]3[C@@H]1CC[C@@H]2O (some centres unmarked) [Fulvestrant]	1.46
CO[C@@H]1[C@H](OC(=O)/C=C/C=C/C=C/C=C/C(=O)O)CC[C@]2(CO2)[C@H]1[C@@]1(C)O[C@@H]1CC=C(C)C [Fumagillin]	23.6
O=C(O)/C=C/C(=O)O [Fumaric acid]	1.89
O=C1OC(CN2CCOCC2)CN1/N=C/c1ccc([N+](=O)[O-])o1 (centres unmarked) [Furaltadone HCl]	15.8
O=C1OCCN1/N=C/c1ccc([N+](=O)[O-])o1 [Furazolidone]	0
NS(=O)(=O)c1cc(C(=O)O)c(NCc2ccco2)cc1Cl [Furosemide]	0
CC(=O)O[C@H]1C[C@@]2(C)[C@@H](C[C@@H](O)[C@H]3[C@@]4(C)CC[C@@H](O)[C@@H](C)[C@@H]4CC[C@@]32C)/C1=C(\CCC=C(C)C)C(=O)O [Fusidate Sodium]	3.17
NCC1(CC(=O)O)CCCCC1 [Gabapentin]	0
COc1ccc2c3c1O[C@H]1C[C@@H](O)C=C[C@@]31CCN(C)C2 [Galanthamine HBr]	0
C[C@]12CC[C@H](O)CC1=CC[C@@H]1[C@@H]2CC[C@]2(C)C(n3cnc4ccccc43)=CC[C@@H]12 [Galeterone]	31.2
CC[N+](CC)(CC)CCOc1cccc(OCC[N+](CC)(CC)CC)c1OCC[N+](CC)(CC)CC [Gallamine Triethiodide]	3.8
O=C(O)c1cc(O)c(O)c(O)c1 [Gallic acid]	0
Cc1cccc(-c2nn3c(c2-c2ccnc4ccc(C(N)=O)cc24)CCC3)n1 [Galunisertib (LY2157299)]	0

Structure (SMILES)	inhibition at 100 µM [%]
Nc1nc2c(ncn2COC(CO)CO)c(=O)[nH]1 [Ganciclovir]	49.4
Cc1cc(Nc2cc(CN3CCOCC3)c3nc(C)c(Cc4ccc(Cl)cc4F)n3n2)n[nH]1 [Gandotinib (LY2784544)]	0
CC(C)c1cc(-c2n[nH]c(=O)n2-c2ccc3c(ccn3C)c2)c(O)cc1O [Ganetespib (STA-9090)]	1.18
COc1c(N2CCNC(C)C2)c(F)cc2c(=O)c(C(=O)O)cn(C3CC3)c12 (centres unmarked) [Gatifloxacin]	1.88
CC(C)=CCC/C(C)=C/CC/C(C)=C/CCC(=O)OC/C=C(\C)CCC=C(C)C [Gefarnate]	5.96
Cc1ccc(C)c(OCCCC(C)(C)C(=O)O)c1 [Gemfibrozil]	45.1
O=c1c(-c2ccc(O)cc2)coc2cc(O)cc(O)c12 [Genistein]	1.56
C#C[C@]1(O)C=C[C@H]2[C@@H]3CCC4=CC(=O)CC[C@@H]4[C@H]3CC[C@@]21CC [Gestodene]	0
Oc1cc(O)c(Cl)cn1 [Gimeracil]	0
O=C(OCC(O)CO)c1ccccc1Nc1ccnc2cc(Cl)ccc12 (centres unmarked) [Glafenine HCl]	16.2
CCC1=C(C)CN(C(=O)NCCc2ccc(S(=O)(=O)NC(=O)N[C@H]3CC[C@H](C)CC3)cc2)C1=O [Glimepiride]	22.5
Cc1cnc(C(=O)NCCc2ccc(S(=O)(=O)NC(=O)NC3CCCCC3)cc2)cn1 [Glipizide]	19.9
N[C@H]1C(O)O[C@H](CO)[C@@H](O)[C@@H]1O (some centres unmarked) [Glucosamine hydrochloride]	0
N[C@@H](CCC(=O)N[C@@H](CS)C(=O)NCC(=O)O)C(=O)O [Glutathione]	0
COc1ccc(Cl)cc1C(=O)NCCc1ccc(S(=O)(=O)NC(=O)NC2CCCCC2)cc1 [Glyburide (Glibenclamide)]	8.25
NCC(=O)O [Glycine]	0
C[N+]1(C)CCC(OC(=O)C(O)(c2ccccc2)C2CCCC2)C1 (centres unmarked) [Glycopyrrolate]	0
CC(C)C[C@H](NC(=O)CNC(=O)[C@H](Cc1ccc(O)cc1)NC(=O)[C@H](CO)NC(=O)[C@H](Cc1c[nH]c2ccccc12)NC(=O)[C@H](Cc1cnc[nH]1)NC(=O)[C@@H]1CCC(=O)N1)C(=O)N[C@@H](CCCNC(=N)N)C(=O)N1CCC[C@H]1C(=O)NCC(N)=O [Gonadorelin Acetate]	0
C=C[C@@H]1C[C@]1(NC(=O)[C@@H]1C[C@@H]2CN1C(=O)[C@H](C(C)(C)C)NC(=O)O[C@@H]1C[C@H]1CCCCCc1nc3ccc(OC)cc3nc1O2)C(=O)NS(=O)(=O)C1CC1 [Grazoprevir]	0
COC1=CC(=O)C[C@@H](C)[C@]12Oc1c(Cl)c(OC)cc(OC)c1C2=O [Griseofulvin]	0
COc1ccccc1O [Guaiacol]	0

From article doi:10.1101/2021.10.07.463234v2 (biorxiv, 2021)
